Assay results taken from ChEMBL document CHEMBL1148021, “(Arylpiperazinyl)cyclohexylsufonamides: discovery of alpha(1a/1d)-selective adrenergic receptor antagonists for the treatment of Benign Prostatic Hyperplasia/Lower Urinary Tract Symptoms (BPH/LUTS)” (Bioorg Med Chem Lett, 2007).

Legend:
D(2) dopamine receptor = D(2) dopamine receptor (Homo sapiens, UniProt P14416); test: Binding affinity to human dopamine D2 receptor
[1] = biological target: T1, Alpha-1A adrenergic receptor (Homo sapiens, UniProt P35348); test: Binding affinity to human cloned adrenergic alpha-1A receptor
T1 sequence (P35348 whole entry): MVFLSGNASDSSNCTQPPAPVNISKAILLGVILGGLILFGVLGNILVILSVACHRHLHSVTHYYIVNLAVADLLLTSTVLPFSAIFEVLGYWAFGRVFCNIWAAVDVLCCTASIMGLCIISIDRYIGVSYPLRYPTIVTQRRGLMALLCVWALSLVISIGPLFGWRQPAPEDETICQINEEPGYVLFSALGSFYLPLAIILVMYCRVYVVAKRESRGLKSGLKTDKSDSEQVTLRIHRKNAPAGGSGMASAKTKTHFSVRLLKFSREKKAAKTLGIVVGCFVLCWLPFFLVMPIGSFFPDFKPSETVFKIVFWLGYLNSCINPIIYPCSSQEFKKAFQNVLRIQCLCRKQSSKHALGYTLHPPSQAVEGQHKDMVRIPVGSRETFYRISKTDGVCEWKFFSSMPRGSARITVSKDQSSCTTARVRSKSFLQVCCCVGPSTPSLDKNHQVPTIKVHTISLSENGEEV

[2] = biological target: T2, Alpha-1D adrenergic receptor (Homo sapiens, UniProt P25100); test: Binding affinity to human cloned adrenergic Alpha-1D receptor
T2 sequence (P25100 whole entry): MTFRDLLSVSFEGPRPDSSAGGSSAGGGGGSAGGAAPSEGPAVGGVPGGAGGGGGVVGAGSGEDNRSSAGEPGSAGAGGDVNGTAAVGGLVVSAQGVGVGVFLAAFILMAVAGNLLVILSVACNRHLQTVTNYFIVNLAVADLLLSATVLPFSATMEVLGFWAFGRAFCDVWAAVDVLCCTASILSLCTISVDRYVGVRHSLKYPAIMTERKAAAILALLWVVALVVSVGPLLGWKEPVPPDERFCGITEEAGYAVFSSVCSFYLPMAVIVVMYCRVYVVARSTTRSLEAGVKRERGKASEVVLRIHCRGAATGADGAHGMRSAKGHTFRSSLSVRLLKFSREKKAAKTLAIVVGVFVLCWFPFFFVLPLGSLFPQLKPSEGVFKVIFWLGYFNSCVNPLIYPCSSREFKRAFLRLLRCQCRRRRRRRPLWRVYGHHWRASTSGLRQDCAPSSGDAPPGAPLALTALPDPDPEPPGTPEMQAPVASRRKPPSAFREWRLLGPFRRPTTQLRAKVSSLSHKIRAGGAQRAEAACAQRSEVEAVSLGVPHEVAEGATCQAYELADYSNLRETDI

[3] = biological target: T3, Alpha-1B adrenergic receptor (Homo sapiens, UniProt P35368); test: Binding affinity to human cloned adrenergic alpha-1B receptor
T3 sequence (P35368 whole entry): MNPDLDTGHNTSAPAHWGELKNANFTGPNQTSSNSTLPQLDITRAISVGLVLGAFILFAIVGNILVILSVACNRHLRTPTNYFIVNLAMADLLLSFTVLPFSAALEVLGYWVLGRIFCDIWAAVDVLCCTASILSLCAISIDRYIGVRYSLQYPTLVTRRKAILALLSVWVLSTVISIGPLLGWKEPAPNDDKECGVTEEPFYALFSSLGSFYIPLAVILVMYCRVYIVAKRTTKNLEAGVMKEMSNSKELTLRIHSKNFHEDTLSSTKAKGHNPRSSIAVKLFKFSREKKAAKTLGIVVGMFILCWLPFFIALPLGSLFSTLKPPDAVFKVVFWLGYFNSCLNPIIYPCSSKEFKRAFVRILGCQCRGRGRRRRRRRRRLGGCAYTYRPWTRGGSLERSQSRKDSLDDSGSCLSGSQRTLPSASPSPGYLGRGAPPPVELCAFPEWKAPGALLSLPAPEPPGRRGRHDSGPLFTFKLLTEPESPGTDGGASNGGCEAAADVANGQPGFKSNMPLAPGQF

Sequence of D(2) dopamine receptor (P14416 whole entry): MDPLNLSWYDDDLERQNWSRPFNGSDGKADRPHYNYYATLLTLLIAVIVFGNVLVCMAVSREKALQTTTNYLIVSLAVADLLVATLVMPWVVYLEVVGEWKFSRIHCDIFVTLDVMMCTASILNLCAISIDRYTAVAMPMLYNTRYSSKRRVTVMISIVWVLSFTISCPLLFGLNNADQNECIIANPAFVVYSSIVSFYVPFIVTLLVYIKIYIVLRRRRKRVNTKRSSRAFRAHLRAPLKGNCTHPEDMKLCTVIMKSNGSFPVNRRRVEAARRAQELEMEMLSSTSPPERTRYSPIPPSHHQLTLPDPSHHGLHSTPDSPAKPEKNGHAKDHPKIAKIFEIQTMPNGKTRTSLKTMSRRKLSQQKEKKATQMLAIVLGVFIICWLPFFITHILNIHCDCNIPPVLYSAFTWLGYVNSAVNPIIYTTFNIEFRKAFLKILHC

Row | Compound | Ki (D(2) dopamine receptor) [nM] | Ki [1] [nM] | Ki [2] [nM] | Ki [3] [nM]
1 | CC(C)Oc1ccccc1N1CCN([C@H]2CC[C@@H](NS(=O)(=O)c3cccc(Cl)c3F)CC2)CC1 | 198 | – | 6.2 | 120
2 | CCOc1ccccc1OCCN[C@H](C)Cc1ccc(OC)c(S(N)(=O)=O)c1 [TAMSULOSIN] | – | – | 0.2 | 2
3 | COc1ccc(Cl)cc1S(=O)(=O)N[C@H]1CC[C@@H](N2CCN(c3ccccc3OC(C)C)CC2)CC1 (stereo in doubt; form 2) | 259 | 11 | – | 399
4 | CC(C)Oc1ccccc1N1CCN([C@H]2CC[C@@H](NS(=O)(=O)c3ccccc3F)CC2)CC1 | 149 | – | 2.4 | –
5 | CC(C)Oc1ccccc1N1CCN([C@H]2CC[C@@H](NS(=O)(=O)c3cc(Cl)ccc3F)CC2)CC1 | 356 | 45 | 15 | 1860
6 | COc1ccc(Cl)cc1S(=O)(=O)N[C@H]1CC[C@@H](N2CCN(c3ccccc3OCC3CC3)CC2)CC1 | 588 | 19 | 48 | 601
7 | O=S(=O)(N[C@H]1CC[C@@H](N2CCN(c3ccccc3OCC3CC3)CC2)CC1)c1cc(Cl)ccc1F | 425 | 36 | 44 | 952
8 | COc1ccc(Cl)cc1S(=O)(=O)N[C@H]1CC[C@@H](N2CCN(c3ccccc3OC(C)C)CC2)CC1 (stereo in doubt; form 1) | 101 | 1 | – | –
9 | CC(C)Oc1ccccc1N1CCN([C@H]2CC[C@@H](NS(=O)(=O)c3ccc(OC(F)(F)F)cc3)CC2)CC1 | 430 | 17 | – | –
10 | COc1ccc(S(=O)(=O)N[C@H]2CC[C@@H](N3CCN(c4ccccc4OC(C)C)CC3)CC2)cc1OC (stereo in doubt; form 2) | 810 | – | 19 | 112

Results, then the compound that gave them:

Row | Ki (D(2) dopamine receptor) [nM] | Ki [1] [nM] | Ki [2] [nM] | Ki [3] [nM] | Compound
11 | 60 | 11 | – | – | Cc1ccc(S(=O)(=O)N[C@H]2CC[C@@H](N3CCN(c4ccccc4OC(C)C)CC3)CC2)cc1Cl
12 | 110 | 18 | 7 | 162 | COc1ccc(C)cc1S(=O)(=O)N[C@H]1CC[C@@H](N2CCN(c3ccccc3OC(C)C)CC2)CC1
13 | 81 | – | 5.1 | 153 | COc1ccc(OC)c(S(=O)(=O)N[C@H]2CC[C@@H](N3CCN(c4ccccc4OC(C)C)CC3)CC2)c1
14 | 123 | 189 | 64 | 364 | COc1ccc(S(=O)(=O)N[C@H]2CC[C@@H](N3CCN(c4ccccc4OCC4CC4)CC3)CC2)cc1OC
15 | 1.9 | 25 | 15 | – | COc1ccc(C(F)(F)F)cc1S(=O)(=O)N[C@H]1CC[C@H](N2CCN(c3ccccc3OC(C)C)CC2)CC1
16 | 78 | – | – | – | COc1ccc(Cl)cc1S(=O)(=O)N[C@H]1CC[C@H](N2CCN(c3ccccc3OC(C)C)CC2)CC1
17 | 62 | – | – | – | COc1ccc(S(=O)(=O)N[C@H]2CC[C@H](N3CCN(c4ccccc4OC(C)C)CC3)CC2)cc1OC
18 | 139 | – | – | – | COc1ccc(F)cc1S(=O)(=O)N[C@H]1CC[C@H](N2CCN(c3ccccc3OC(C)C)CC2)CC1
19 | 31 | – | – | – | CC(C)Oc1ccccc1N1CCN([C@H]2CC[C@H](NS(=O)(=O)c3ccccc3F)CC2)CC1
20 | 24 | – | – | – | CC(C)Oc1ccccc1N1CCN([C@H]2CC[C@@H](NS(=O)(=O)Cc3ccccc3)CC2)CC1
21 | 42 | – | – | – | CC(C)Oc1ccccc1N1CCN([C@H]2CC[C@H](NS(=O)(=O)c3ccc(Cl)cc3F)CC2)CC1
22 | 69 | – | – | – | CC(C)Oc1ccccc1N1CCN([C@H]2CC[C@@H](NS(=O)(=O)c3ccc(F)cc3)CC2)CC1
23 | 14 | – | – | – | CC(C)Oc1ccccc1N1CCN([C@H]2CC[C@H](NS(=O)(=O)c3ccc(S(C)(=O)=O)cc3)CC2)CC1
24 | 64 | – | – | – | CC(C)Oc1ccccc1N1CCN([C@H]2CC[C@H](NS(=O)(=O)c3cccc(F)c3)CC2)CC1
25 | 61 | – | – | – | CC(C)Oc1ccccc1N1CCN([C@H]2CC[C@@H](NS(=O)(=O)c3cnc(Cl)c(Br)c3)CC2)CC1
